Data as given in ChEMBL document CHEMBL3774384, “Synthesis of fusidic acid bioisosteres as antiplasmodial agents and molecular docking studies in the binding site of elongation factor-G” (Medchemcomm, 2015).

How the values were obtained:
Plasmodium falciparum [1] = test: Antiplasmodial activity against chloroquine sensitive Plasmodium falciparum NF54 infected in human RBC after 48 hrs by [3H]hypoxanthine incorporation assay; assay type: functional, organism-based
CHO = test: Cytotoxicity against CHO assessed as cell viability after 48 hrs by MTT assay; assay type: cell-based; conditions: Cricetulus griseus
[2] = Selectivity index, ratio of IC50 for CHO cells to IC50 for Plasmodium falciparum NF54; assay type: toxicity, cell-based; conditions: hamster, read-out: Ratio IC50
Plasmodium falciparum [3] = test: Antiplasmodial activity against Plasmodium falciparum D10 infected in human RBC after 48 to 96 hrs by SYBR Green I dye-based fluorescence assay; assay type: functional, organism-based
[4] = Stability in RPMI medium supplemented with HEPES, NaHCO3, Neomycin and Albumax II after 48 hrs; assay type: physicochemical

SMILES	IC50 (Plasmodium falciparum [1]) [µM]	IC50 (CHO) [µM]	selectivity ratio [2]	IC50 (Plasmodium falciparum [3]) [µM]	Stability [4]
C[C@H]1[C@H](OC(=O)CCC(=O)O)O[C@@H]2O[C@@]3(C)CC[C@H]4[C@H](C)CC[C@@H]1[C@@]24OO3 [ARTESUNATE]	0.004	–	–	–	–
CC(=O)O[C@H]1C[C@@]2(C)[C@@H](C[C@@H](O)[C@H]3[C@@]4(C)CC[C@@H](O)[C@@H](C)[C@@H]4CC[C@@]32C)/C1=C(\CCC=C(C)C)c1n[nH]c(=O)o1	9.2	82	9	–	–
CC(=O)O[C@H]1C[C@@]2(C)[C@@H](C[C@@H](O)[C@H]3[C@@]4(C)CC[C@@H](O)[C@@H](C)[C@@H]4CC[C@@]32C)/C1=C(\CCC=C(C)C)c1nc(C)no1	3.8	47.8	13	–	–
CCc1noc(/C(CCC=C(C)C)=C2\[C@@H](OC(C)=O)C[C@@]3(C)[C@H]2C[C@@H](O)[C@H]2[C@@]4(C)CC[C@@H](O)[C@@H](C)[C@@H]4CC[C@@]23C)n1	1.9	71.7	38	–	–
CC(=O)O[C@H]1C[C@@]2(C)[C@@H](C[C@@H](O)[C@H]3[C@@]4(C)CC[C@@H](O)[C@@H](C)[C@@H]4CC[C@@]32C)/C1=C(\CCC=C(C)C)C(=O)O [FUSIDIC ACID]	59	> 194	> 3	52.8	Stable
CCCc1noc(/C(CCC=C(C)C)=C2\[C@@H](OC(C)=O)C[C@@]3(C)[C@H]2C[C@@H](O)[C@H]2[C@@]4(C)CC[C@@H](O)[C@@H](C)[C@@H]4CC[C@@]23C)n1	2.1	68.2	32	–	–
CC(=O)O[C@H]1C[C@@]2(C)[C@@H](C[C@@H](O)[C@H]3[C@@]4(C)CC[C@@H](O)[C@@H](C)[C@@H]4CC[C@@]32C)/C1=C(\CCC=C(C)C)c1nc(-c2ccc(F)cc2)no1	1.7	77.4	46	–	–
CC(=O)O[C@H]1C[C@@]2(C)[C@@H](C[C@@H](O)[C@H]3[C@@]4(C)CC[C@@H](O)[C@@H](C)[C@@H]4CC[C@@]32C)/C1=C(\CCC=C(C)C)c1n[nH]c(=S)o1	7	70	10	–	–

Continued, in another order:

IC50 (Plasmodium falciparum [1]) [µM]	SMILES	IC50 (CHO) [µM]	selectivity ratio [2]	IC50 (Plasmodium falciparum [3]) [µM]	Stability [4]
8.4	CC(=O)O[C@H]1C[C@@]2(C)[C@@H](C[C@@H](O)[C@H]3[C@@]4(C)CC[C@@H](O)[C@@H](C)[C@@H]4CC[C@@]32C)/C1=C(\CCC=C(C)C)C(=O)NNC(=O)c1cccs1	78.8	9	–	–
> 15	CC(=O)O[C@H]1C[C@@]2(C)[C@@H](C[C@@H](O)[C@H]3[C@@]4(C)CC[C@@H](O)[C@@H](C)[C@@H]4CC[C@@]32C)/C1=C(\CCC=C(C)C)C(=O)Nc1nn[nH]n1	> 171	–	–	–
12.4	CCS(=O)(=O)NNC(=O)/C(CCC=C(C)C)=C1\[C@@H](OC(C)=O)C[C@@]2(C)[C@H]1C[C@@H](O)[C@H]1[C@@]3(C)CC[C@@H](O)[C@@H](C)[C@@H]3CC[C@@]12C	77.3	6	–	–
8	CCCCS(=O)(=O)NNC(=O)/C(CCC=C(C)C)=C1\[C@@H](OC(C)=O)C[C@@]2(C)[C@H]1C[C@@H](O)[C@H]1[C@@]3(C)CC[C@@H](O)[C@@H](C)[C@@H]3CC[C@@]12C	49.9	6	–	–
5.7	CCCS(=O)(=O)NNC(=O)/C(CCC=C(C)C)=C1\[C@@H](OC(C)=O)C[C@@]2(C)[C@H]1C[C@@H](O)[C@H]1[C@@]3(C)CC[C@@H](O)[C@@H](C)[C@@H]3CC[C@@]12C	79.7	14	–	–
31.3	CC(=O)O[C@H]1C[C@@]2(C)[C@@H](C[C@@H](O)[C@H]3[C@@]4(C)CC[C@@H](O)[C@@H](C)[C@@H]4CC[C@@]32C)/C1=C(\CCC=C(C)C)C(=O)NNS(=O)(=O)c1ccc(Cl)cc1	53.2	2	–	–
10.8	CC(=O)O[C@H]1C[C@@]2(C)[C@@H](C[C@@H](O)[C@H]3[C@@]4(C)CC[C@@H](O)[C@@H](C)[C@@H]4CC[C@@]32C)/C1=C(\CCC=C(C)C)C(=O)NC#N	> 185	> 17	–	–
21.3	CC(=O)O[C@H]1C[C@@]2(C)[C@@H](C[C@@H](O)[C@H]3[C@@]4(C)CC[C@@H](O)[C@@H](C)[C@@H]4CC[C@@]32C)/C1=C(\CCC=C(C)C)C(=O)NN	112	5	–	–
35.9	CC(=O)O[C@H]1C[C@@]2(C)[C@@H](C[C@@H](O)[C@H]3[C@@]4(C)CC[C@@H](O)[C@@H](C)[C@@H]4CC[C@@]32C)/C1=C(\CCC=C(C)C)C(N)=O	113	3	–	–
> 15	CC(=O)O[C@H]1C[C@@]2(C)[C@@H](C[C@@H](O)[C@H]3[C@@]4(C)CC[C@@H](O)[C@@H](C)[C@@H]4CC[C@@]32C)/C1=C(\CCC=C(C)C)C(=O)NS(=O)(=O)c1ccccc1	96.1	–	–	–
7.3	CC(=O)O[C@H]1C[C@@]2(C)[C@@H](C[C@@H](O)[C@H]3[C@@]4(C)CC[C@@H](O)[C@@H](C)[C@@H]4CC[C@@]32C)/C1=C(\CCC=C(C)C)C(=O)NS(=O)(=O)c1ccc(F)c(F)c1	81.4	11	–	–
13.4	CC(=O)O[C@H]1C[C@@]2(C)[C@@H](C[C@@H](O)[C@H]3[C@@]4(C)CC[C@@H](O)[C@@H](C)[C@@H]4CC[C@@]32C)/C1=C(\CCC=C(C)C)C(=O)NNS(=O)(=O)c1ccc(C)cc1	48.2	4	–	–
> 15	CC(=O)O[C@H]1C[C@@]2(C)[C@@H](C[C@@H](O)[C@H]3[C@@]4(C)CC[C@@H](O)[C@@H](C)[C@@H]4CC[C@@]32C)/C1=C(\CCC=C(C)C)C(=O)NS(C)(=O)=O	> 169	–	–	–
